# Earlier results in US20250213514A1, “STABLE, LIQUID PHARMACEUTICAL COMPOSITIONS COMPRISING MELPHALAN” (GOOD HEALTH, LLC, priority 2022, published 2025).
# Read-outs that look alike come from different tables or passages of the source.
structure (smiles),measurement,setting,value
N[C@@H](Cc1ccc(N(CCCl)CCCl)cc1)C(=O)O [Melphalan],Solubility,"in ethanol, methanol",slightly soluble
same,Solubility,in propylene glycol and dilute mineral acids,soluble
same,Solubility,"in water, chloroform, and ether",practically insoluble
